Data on four compounds can be found in US20230165812A1, “NOCICEPTOR NEURONS CONTROL CANCER IMMUNOSURVEILLANCE” (priority 2020, published 2023).

“Also recorded” adds a separate entry of the source. Read-outs that look alike come from different tables or passages of the source.

The test system of data set [1] is cytotoxic CD8+ T-cells co-cultured with DRG neurons. The data set is described as follows: DRG neuron / cytotoxic CD8+ T-cell co-culture. The data set is classed as cell-based, mice. Particulars: for INFγ+ CD8+ T-cells in co-culture with DRG neurons / TNFα+ CD8+ T-cells in co-culture with DRG neurons / proportion of PD1+Lag3+Tim3+ CD8+ T-cells in co-culture with DRG neurons: neuron stimulation, 48 h co-culture. The protocol:
Naïve DRG neurons (1×10^4) were seeded in T cell media (supplemented with 0.05 ng/μL NGF (Life Technologies, #13257-019), 0.002 ng/μL GDNF (Peprotech, #450-51-10), and co-cultured with Tc1 CD8 T cells (1×10^5) in presence of IL-2 (575408). In some instances, co-cultures were stimulated with either of capsaicin (300 nM, twice/day) or KCl (40 mM). After 48 h, the cells were collected by centrifugation (5 min at 1300 rpm), stained and immunophenotyped by flow cytometry.

Data set [2] deals with B16F10. The data set is classed as in vivo, mice. The settings on record: for reduction of B16F10 melanoma growth compared with vehicle / reduction of tumor weight compared with vehicle: B16F10-bearing mice; for reduction of B16F10 melanoma growth compared with vehicle: QX-314 0.3% daily i.d. surrounding the tumor, BIBN4096 systemically once every two days (5 mg/kg i.p.); for reduction of tumor weight compared with vehicle: QX-314 0.3% daily i.d., BIBN4096 5 mg/kg i.p.

The test system of data set [3] is tumor-infiltrating CD8+ and CD4+ T-cells. The class given is in vivo, mice. The settings on record: for reduction of the proportion of PD1+Lag3+Tim3+ CD8+ T-cells: intra-tumoral, QX-314 0.3% daily i.d.
The subject of data set [4] is B16F10. The data set is classed as in vivo, mice.
In data set [5] the test system is cytotoxic CD8+ T-cells.
The test system of data set [6] is CGRP. More on the design: species or system mice. The settings on record: capsaicin 1 μM; 3 h.
The subject of data set [7] is cytotoxic CD8+ T-cells co-cultured with DRG neurons. The experiment in a line: DRG neuron / cytotoxic CD8+ T-cell co-culture. The data set is classed as cell-based, mice. The settings on record: capsaicin without neurons.
Data set [8] concerns B16F10 cells. The data set is classed as cell-based, mouse. The settings on record: BIBN4096 1-4 μM.
Data set [9] has as its system B16F10. Also noted: species or system mice. Particulars: mouse, in vivo.
The test system of data set [10] is tumor-infiltrating CD8 and CD4 T cells. The data set is classed as in vivo, mice.
For data set [11], the target named is CGRP receptor (Mus musculus, UniProt Q9R1W5+Q9WTJ5). The settings on record: in vivo; cited from earlier work.
Sequence of CGRP receptor (Q9R1W5 25-463): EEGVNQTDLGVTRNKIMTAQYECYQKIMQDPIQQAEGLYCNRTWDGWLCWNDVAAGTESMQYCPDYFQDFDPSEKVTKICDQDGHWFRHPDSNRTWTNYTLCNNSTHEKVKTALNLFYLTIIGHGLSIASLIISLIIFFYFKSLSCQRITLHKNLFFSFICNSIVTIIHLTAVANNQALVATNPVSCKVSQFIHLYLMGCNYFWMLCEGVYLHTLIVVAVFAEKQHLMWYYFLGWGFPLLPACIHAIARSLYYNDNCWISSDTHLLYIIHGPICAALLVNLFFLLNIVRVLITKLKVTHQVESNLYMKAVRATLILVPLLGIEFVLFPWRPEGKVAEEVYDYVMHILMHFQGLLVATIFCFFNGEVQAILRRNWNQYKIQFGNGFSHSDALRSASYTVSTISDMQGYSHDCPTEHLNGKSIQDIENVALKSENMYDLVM
Sequence of CGRP receptor (Q9WTJ5 27-148): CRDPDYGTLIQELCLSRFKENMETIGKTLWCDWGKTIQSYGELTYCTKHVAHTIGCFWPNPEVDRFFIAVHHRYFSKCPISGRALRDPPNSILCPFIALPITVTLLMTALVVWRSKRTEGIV

`[Cl-].[K+]` [KCl, potassium chloride]: in [1], the “INFγ+ CD8+ T-cells in co-culture with DRG neurons” value (“INFγ+ CD8+ T-cells in co-culture” for short) was “decreased”, the “TNFα+ CD8+ T-cells in co-culture with DRG neurons” value (shortened to “TNFα+ CD8+ T-cells in co-culture”) was “decreased” and the “proportion of PD1+Lag3+Tim3+ CD8+ T-cells in co-culture with DRG neurons” value is listed as “increased”.

For the compound `CC[N+](CC)(CC)CC(=O)Nc1c(C)cccc1C` [QX-314], in data set [2], the “reduction of B16F10 melanoma growth compared with vehicle” value is on record as approximately 3.3 fold and the “reduction of tumor weight compared with vehicle” value is approximately 5.2 fold. In addition, the “reduction of the proportion of PD1+Lag3+Tim3+ CD8+ T-cells” value in [3] (BIBN4096 5 mg/kg i.p.) is approximately 15 fold. Also, the “rate at which vehicle exposed mice succumb relative to treated mice” value in data set [4] (B16F10-bearing mice, p≤0.0001) is recorded as 2.7 fold. The “hazard ratio (survival)” value in data set [4] (mouse, in vivo) was 0.37. Besides, in [5], the “IL2+ cultured cytotoxic CD8+ T-cells” value is listed as “do not impact”, the “INFγ+ cultured cytotoxic CD8+ T-cells” value is given as “do not impact”, the “TNFα+ cultured cytotoxic CD8+ T-cells” value was “do not impact” and the “proportion of PD1+Lag3+Tim3+ cultured cytotoxic CD8+ T-cells” value is “do not impact”. Also, the “survival of cultured cytotoxic CD8+ T-cells” value in data set [5] was “do not impact”.

Consider `COc1cc(CNC(=O)CCCC/C=C/C(C)C)ccc1O` [capsaicin], for which the “CGRP levels in B16F10 tumor surrounding skin explant” value in data set [6] is recorded as “further enhanced”. Also, in [1] (capsaicin-challenge), the “IL2+ CD8+ T-cells in co-culture with DRG neurons” value is reported as “decreased” and the “proportion of PD1+ T cells in co-culture with DRG neurons” value was “increases”. In data set [1], the “INFγ+ CD8+ T-cells in co-culture” value is given as “reduced; also recorded: decreased”, the “TNFα+ CD8+ T-cells in co-culture” value was “decreased; also recorded: reduced” and the “proportion of PD1+Lag3+Tim3+ CD8+ T-cells in co-culture with DRG neurons” value is recorded as “increased”. In data set [1] (listed as Capsaicin), the “INFγ+ CD8+ T-cells in co-culture” value is given as “decreased” and the “TNFα+ CD8+ T-cells in co-culture” value was “decreased”. In addition, in [7], the “impact on CD8+ T-cells in the absence of neurons” value is given as “no measurable impact”.

With `NCCCC[C@H](NC(=O)[C@@H](Cc1cc(Br)c(O)c(Br)c1)NC(=O)N1CCC(N2Cc3ccccc3NC2=O)CC1)C(=O)N1CCN(c2ccncc2)CC1` [BIBN4096], in data set [2], the “reduction of B16F10 melanoma growth compared with vehicle” value was approximately 1.5 fold and the “reduction of tumor weight compared with vehicle” value is recorded as approximately 1.9 fold. In data set [2] (mouse, in vivo, ip, 5 mg/kg), the B16F10 tumor growth result was “decreased”, the B16F10 tumor volume result is “decreased” and the B16F10 tumor weight result is reported as “decreased”. In data set [3] (BIBN4096 5 mg/kg i.p.), the “increase of intra-tumor number of INFγ+ CD8+ T-cells” value is recorded as approximately 3 fold, the “increase of intra-tumor number of total CD8+ T-cells” value is approximately 3 fold, the “intra-tumoral number of Granzyme B+ CD4+ T-cells” value was “increased” and the “intra-tumoral number of INFγ+ CD4+ T-cells” value is “increased”. Further, in data set [3] (BIBN4096 5 mg/kg i.p.), the “intra-tumoral number of TNFα+ CD4+ T-cells” value is recorded as “increased”, the “intra-tumoral proportion of PD1+ CD4+ T-cells” value is reported as “decreased” and the “reduction of the proportion of PD1+Lag3+Tim3+ CD8+ T-cells” value is listed as approximately 2.5 fold. Also, in data set [3] (Example 1 dosing), the “intra-tumoral number of Granzyme B+ CD8+ T-cells” value is “increased”, the “intra-tumoral number of INFγ+ CD8+ T-cells” value is “increased”, the “intra-tumoral number of TNFα+ CD8+ T-cells” value is reported as “increased” and the “intra-tumoral number of total CD8+ T-cells” value is on record as “increased”. Besides, the “intra-tumoral total CD4+ T-cells counts” value in [3] (mouse, in vivo) is on record as “increased”. In addition, the “number/proportion of intra-tumor PD1+Lag3+Tim3+ CD8+ T-cells” value in data set [3] (mouse, in vivo, ip, 5 mg/kg) was “decreased”. Moreover, in [8], the “cultured B16F10 survival” value is given as “no impact”. Also, in data set [9], the B16F10 tumor growth entry is recorded as “reduced; also recorded: decreased”, the B16F10 tumor volume result was “reduced” and the B16F10 tumor weight entry is given as “reduced”. In [10] (BIBN 5 mg/kg), the “intra-tumor PD1+ CD8 T cells” value is given as “decreased”. For the same compound, the “tumor infiltration of PD1+ CD4 T cells” value in data set [10] (BIBN 5 mg/kg i.d.) was “decreased”. Besides, in data set [10] (Example 2 dosing), the “infiltration of INFγ+ CD8 T cells” value is on record as “increasing; also recorded: enhanced”, the “total number of intra-tumoral CD4 T cells” value is reported as “enhanced; also recorded: increased”, the “tumor infiltration of INFγ+ CD4 T cells” value was “increased” and the “tumor infiltration of TNFα+ CD4 T cells” value was “decreased”. Further, the “tumor infiltration of TNFα+ CD8 T cells” value in [10] (Example 2 dosing) was “increasing; also recorded: increased”. In addition, in data set [10] (mouse, in vivo), the “tumor infiltration of Granzyme B+ CD4 T cells” value is listed as “increased” and the “tumor infiltration of Granzyme B+ CD8 T cells” value is “increasing; also recorded: increased”. Also, in data set [5], the “IL2+ cultured cytotoxic CD8+ T-cells” value is “do not impact”, the “INFγ+ cultured cytotoxic CD8+ T-cells” value is recorded as “do not impact”, the “TNFα+ cultured cytotoxic CD8+ T-cells” value is “do not impact” and the “proportion of PD1+Lag3+Tim3+ cultured cytotoxic CD8+ T-cells” value is listed as “do not impact”. Besides, the “survival of cultured cytotoxic CD8+ T-cells” value in data set [5] is “do not impact”. The “effects of αCD3/αCD28 stimulation on CD8+ T-cells” value in [5] (BIBN4096 1-4 μM) is “do not prevent”. Further, in [11], the “host anti-bacterial activity during microbe infection” value was “rescues”.
